Measurements from patent US20140224680A1, “KIT-OF-PARTS” (BOEHRINGER INGELHEIM VETMEDICA GMBH, priority 2013, published 2014).
Structures can show the parent of a compound that is named as a salt.

Assay: lipophilicity profile
Format: physicochemical
Settings: neutral pH values versus acidic pH values
Text: Usually, EC/HPMC films show sustained release behavior more or less independent of pH. […] This, together with the coating applied, is expected to result in a slower release at neutral pH values, sufficient to use the respective multi-layered particles for the application of this drug for the treatment of animals like cats.

## COc1ccc(CCN2CCC[C@H](CN3CCc4cc(OC)c(OC)cc4CC3=O)C2)cc1OC [cilobradine hydrochloride]
  lipophilicity: slightly more lipophilic at neutral pH values than at acidic pH values
